Key:
Format in all cases: biochemical
[1] = biological target: T1, catalytic domain of human PARP5a (Homo sapiens, UniProt O95271); experiment: automodification, click biotin labelling, streptavidin-HRP immunoblot; settings: […] analogue, […] MgCl2, pH […]
T1 construct: gene TNKS; catalytic domain residues 1093-1327, C-terminal His6, E. coli BL21 (DE3)
T1 sequence (O95271 1093-1327): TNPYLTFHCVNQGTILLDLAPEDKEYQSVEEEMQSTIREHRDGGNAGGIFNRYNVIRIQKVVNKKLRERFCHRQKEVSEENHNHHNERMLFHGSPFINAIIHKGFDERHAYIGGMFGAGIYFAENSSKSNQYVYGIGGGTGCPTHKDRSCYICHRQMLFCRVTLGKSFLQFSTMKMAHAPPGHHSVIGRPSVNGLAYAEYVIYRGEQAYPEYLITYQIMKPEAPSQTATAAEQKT

[2] = biological target: T2, catalytic domain of human PARP10 (Homo sapiens, UniProt Q53GL7); experiment: as above; settings: […] analogue, […] MgCl2, pH […]
T2 construct: catalytic domain residues 809-1017, N-terminal His6, E. coli BL21 (DE3)
T2 sequence (Q53GL7 809-1017): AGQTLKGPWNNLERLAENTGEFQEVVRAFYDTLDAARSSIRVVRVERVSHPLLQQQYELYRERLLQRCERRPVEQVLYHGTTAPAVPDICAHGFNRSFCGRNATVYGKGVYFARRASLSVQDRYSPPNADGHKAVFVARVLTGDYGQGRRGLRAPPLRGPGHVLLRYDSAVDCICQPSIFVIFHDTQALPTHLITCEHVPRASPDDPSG

human NRK1 = biological target: T3, human NRK1 (Homo sapiens, UniProt Q9NWW6); experiment: HPLC conversion; settings: […] NR6, […] ATP, […] MgCl2, pH […], room temperature
T3 construct: gene NMRK1; full length, C-terminal His6, pET-28a, E. coli BL21 (DE3)
T3 sequence (Q9NWW6 1-199): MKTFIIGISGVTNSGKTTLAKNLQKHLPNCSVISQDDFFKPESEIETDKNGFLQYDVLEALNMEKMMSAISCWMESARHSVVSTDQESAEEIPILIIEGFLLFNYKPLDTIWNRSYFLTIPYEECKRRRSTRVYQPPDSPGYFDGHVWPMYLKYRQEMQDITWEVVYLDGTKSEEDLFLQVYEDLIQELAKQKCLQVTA

Compound | automodification, click biotin labelling, streptavidin-HRP immunoblot [1] | automodification, click biotin labelling, streptavidin-HRP immunoblot [2] | HPLC conversion (human NRK1)
C#Cc1nc(N)c2ncn([C@@H]3O[C@H](COP(=O)(O)OP(=O)([O-])OC[C@H]4O[C@@H]([n+]5cccc(C(N)=O)c5)[C@H](O)[C@@H]4O)[C@@H](O)[C@H]3O)c2n1 [2-a-NAD^+, 2-alkyne-NAD^+] | 6-a-NAD^+ and 2-a-NAD^+ that displayed strong automodification activities for both enzymes | 6-a-NAD^+ and 2-a-NAD^+ that displayed strong automodification activities for both enzymes | –
C#CCNc1ncnc2c1ncn2[C@@H]1O[C@H](COP(=O)(O)OP(=O)([O-])OC[C@H]2O[C@@H]([n+]3cccc(C(N)=O)c3)[C@H](O)[C@@H]2O)[C@@H](O)[C@H]1O [6-a-NAD^+, 6-alkyne-NAD^+] | 6-a-NAD^+ and 2-a-NAD^+ that displayed strong automodification activities for both enzymes | 6-a-NAD^+ and 2-a-NAD^+ that displayed strong automodification activities for both enzymes | –
[N-]=[N+]=N[C@H]1[C@@H](O)[C@H]([n+]2cccc(C(N)=O)c2)O[C@@H]1CO [NR6] | – | – | NRK1 that could only catalyze conversion of NR5 and NR6
